Consider eight compounds from article PMC5609127 (ACS Chemical Neuroscience, 2017).

Assay [1] concerns the target T1, RXRα (Homo sapiens, UniProt P19793).
T1 sequence (P19793 227-458 limits assumed): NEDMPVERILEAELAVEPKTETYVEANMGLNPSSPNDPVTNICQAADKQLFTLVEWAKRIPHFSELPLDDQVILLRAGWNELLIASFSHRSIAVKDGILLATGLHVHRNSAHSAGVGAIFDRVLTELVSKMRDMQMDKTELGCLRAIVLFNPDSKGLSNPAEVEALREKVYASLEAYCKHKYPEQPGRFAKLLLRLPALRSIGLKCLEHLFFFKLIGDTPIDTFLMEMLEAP
In words: Fluorescence polarization. Conditions: for agonist character in FP assay: agonist format. The assay is classed as biochemical. (In general: Fluorescence polarisation rises when a labelled molecule tumbles more slowly, as on binding a larger partner.)

In assay [2] the target is T2, RXRα (Homo sapiens, UniProt P19793).
T2 sequence (P19793 1-462): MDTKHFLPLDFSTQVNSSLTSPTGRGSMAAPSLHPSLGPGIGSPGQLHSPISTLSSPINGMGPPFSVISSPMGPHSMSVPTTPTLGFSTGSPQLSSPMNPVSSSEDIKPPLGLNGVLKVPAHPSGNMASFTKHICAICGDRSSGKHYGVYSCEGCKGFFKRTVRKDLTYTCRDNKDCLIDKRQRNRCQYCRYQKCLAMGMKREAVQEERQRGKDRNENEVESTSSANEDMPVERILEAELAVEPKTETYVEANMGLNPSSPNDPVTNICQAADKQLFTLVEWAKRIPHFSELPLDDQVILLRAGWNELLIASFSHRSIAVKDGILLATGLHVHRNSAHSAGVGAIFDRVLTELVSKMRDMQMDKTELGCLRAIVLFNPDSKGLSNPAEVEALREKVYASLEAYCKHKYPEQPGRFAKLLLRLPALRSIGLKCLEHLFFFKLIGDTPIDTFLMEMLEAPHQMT
Briefly: Mammalian two-hybrid. The assay is classed as cell-based. Conditions: for agonist character in M2H assay: agonist format.

Assay [3] addresses T3, RXRα–RXRα homodimer (Homo sapiens, UniProt P19793).
T3 sequence (P19793 1-462) 1: T2 sequence (P19793 1-462)
T3 sequence (P19793 1-462) 2: T2 sequence (P19793 1-462)
In words: BRET2 homodimerization assay. In general terms: Bioluminescence resonance energy transfer reports proximity on the nanometre scale.

For assay [4], the target named is RXRα–NURR1 heterodimer (Homo sapiens, UniProt P19793). Briefly: BRET2 heterodimerization assay. Conditions: for NURR1–RXRα vs RXRα–RXRα selectivity: BRET2 potency ratio heterodimer vs homodimer.
The target in assay [5] is T1, RXRα. Briefly: Fluorescence polarization competition assay against LG100268. The assay is classed as biochemical. Conditions: for antagonist character in FP competition assay: competition against LG100268 (50 nM).
For assay [6], the target named is T2, RXRα. In words: M2H luciferase competition assay against LG100268. The format is cell-based. Conditions: ligand in the 10–40 μM range after stimulation with LG100268 (10 nM).
[7] abbreviates: FP/EC50, His6-RXRα-LBD 1 μM, fluorescein-labeled D22 coactivator peptide 0.1 μM.

Sequence of RXRα–NURR1 heterodimer (P43354 whole entry partner, one chain of several): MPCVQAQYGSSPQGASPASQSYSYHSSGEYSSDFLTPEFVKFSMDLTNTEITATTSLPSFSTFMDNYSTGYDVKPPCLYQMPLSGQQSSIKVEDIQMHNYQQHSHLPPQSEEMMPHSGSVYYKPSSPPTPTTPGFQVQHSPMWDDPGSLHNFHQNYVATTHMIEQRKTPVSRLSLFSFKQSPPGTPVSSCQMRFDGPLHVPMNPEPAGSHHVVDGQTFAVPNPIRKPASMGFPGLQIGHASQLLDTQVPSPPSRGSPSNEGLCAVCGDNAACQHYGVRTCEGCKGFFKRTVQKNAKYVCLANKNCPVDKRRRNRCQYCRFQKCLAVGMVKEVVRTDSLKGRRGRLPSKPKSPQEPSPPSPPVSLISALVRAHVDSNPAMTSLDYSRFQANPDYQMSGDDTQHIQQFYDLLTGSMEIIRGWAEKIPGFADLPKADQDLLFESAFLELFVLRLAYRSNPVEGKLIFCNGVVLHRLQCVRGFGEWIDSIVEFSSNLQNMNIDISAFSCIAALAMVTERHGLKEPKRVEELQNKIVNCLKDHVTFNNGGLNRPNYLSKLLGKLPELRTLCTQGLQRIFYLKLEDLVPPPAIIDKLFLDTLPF

Regarding `O=C(O)/C=C/c1ccc(O)c(-c2cccc(-c3ccccc3)c2)c1` [ligand 2, (E)-3-(6-Hydroxy-[1,1′:3′,1″-terphenyl]-3-yl)acrylic Acid], the EC50 in assay [1] (setting [7]) is 140 ± 23 nM; in assay [2] it was 85 ± 9 nM; in assay [3] it was 31.6 nM; in assay [4], 3.16 nM. The “NURR1–RXRα vs RXRα–RXRα selectivity” value in assay [4] was found to be 10 fold.

As for `Cc1c(-c2ccccc2)cccc1-c1cc(/C=C/C(=O)O)ccc1O` [ligand 6, (E)-3-(6-Hydroxy-2′-methyl-[1,1′:3′,1″-terphenyl]-3-yl)acrylic Acid], the EC50 in assay [1] (setting [7]) was 9900 ± 2500 nM; in assay [1] (potency range in FP assay), 1000 to 10000 nM; in assay [2] it was above 2500 nM; in assay [3], 158 nM; in assay [4], 794 nM. In assay [1], the “agonist character in FP assay” value was “full agonism”. Also, the “agonist character in M2H assay” value in assay [2] is given as “full agonism”. Besides, in assay [4], the “NURR1–RXRα vs RXRα–RXRα selectivity” value was 0.2 fold.

As to `CCCc1cccc(-c2cc(/C=C/C(=O)O)ccc2O)c1` [ligand 5, (E)-3-(6-Hydroxy-3′-propyl-[1,1′-biphenyl]-3-yl)acrylic Acid], the EC50 in assay [1] (setting [7]) is 170 ± 80 nM; in assay [2] it was 18 ± 10 nM; in assay [3], 100 nM; in assay [4], 5.01 nM. Further, in assay [4], the “NURR1–RXRα vs RXRα–RXRα selectivity” value was found to be 20 fold.

`C=CCc1ccc(OCCCCCC)c(-c2cc(/C=C/C(=O)O)ccc2O)c1` [ligand 10, (E)-3-(5′-Allyl-2′-(hexyloxy)-6-hydroxy-[1,1′-biphenyl]-3-yl)acrylic Acid]: in assay [5], the IC50 was found to be 46900 ± 5900 nM and the “antagonist character in FP competition assay” value was “full antagonism”. Further, in assay [6], the “effect in M2H competition assay” value was “clear decrease in luciferase expression”. For the same compound, in assay [3], the EC50 is above 10000 nM and the “activity in BRET2 assay (RXRα–RXRα)” value is reported as “did not show appreciable activity”. In assay [4], the EC50 is above 10000 nM and the “activity in BRET2 assay (RXRα–NURR1)” value is recorded as “did not show appreciable activity”.

Regarding `CC(C)c1cccc(-c2cc(/C=C/C(=O)O)ccc2O)c1` [ligand 4, (E)-3-(6-Hydroxy-3′-isopropyl-[1,1′-biphenyl]-3-yl)acrylic Acid], the results for the EC50 in assay [1] (setting [7]), in assay [2] and in assay [4] were 89 ± 7 nM, 5.8 ± 1.8 nM and 0.794 nM, respectively. Further, the “NURR1–RXRα vs RXRα–RXRα selectivity” value in assay [4] turned out to be 25 fold.

Take `C=CCc1ccc(OCCC)c(-c2cc(/C=C/C(=O)O)ccc2O)c1` [ligand 9, (E)-3-(5′-Allyl-6-hydroxy-2′-propoxy-[1,1′-biphenyl]-3-yl)acrylic Acid]: the “agonist character in FP assay” value in assay [1] was “partial agonism”. Further, in assay [5], the IC50 came out at 48500 ± 4600 nM and the “antagonist character in FP competition assay” value is listed as “partial antagonism”. The “effect in M2H competition assay” value in assay [6] was “clear decrease in luciferase expression”. The EC50 in assay [3] turned out to be 20 nM. Besides, the “bias toward RXRα homodimers over RXRα–NURR1 heterodimers (factor)” value in assay [3] (BRET2) turned out to be 10. Also, in assay [4], the EC50 is 158 nM and the “NURR1–RXRα vs RXRα–RXRα selectivity” value is listed as 0.1 fold.

For `Cc1ccc(-c2ccccc2)cc1-c1cc(/C=C/C(=O)O)ccc1O` [ligand 7, (E)-3-(6-Hydroxy-6′-methyl-[1,1′:3′,1″-terphenyl]-3-yl)acrylic Acid], the EC50 is 1020 ± 60 nM in assay [1] (setting [7]), 1000 to 10000 nM in assay [1] (potency range in FP assay), 31.6 nM in assay [3] and 79.4 nM in assay [4]. Besides, in assay [1], the “agonist character in FP assay” value was “full agonism”. For the same compound, the “agonist character in M2H assay” value in assay [2] is “full agonism”. Also, the “NURR1–RXRα vs RXRα–RXRα selectivity” value in assay [4] came out at 0.4 fold.

For the compound `O=C(O)/C=C/c1ccc(O)c(-c2cccc(Cc3ccccc3)c2)c1` [ligand 3, (E)-3-(3′-Benzyl-6-hydroxy-[1,1′-biphenyl]-3-yl)acrylic Acid], the EC50 in assay [1] (setting [7]) is 142 ± 9 nM; in assay [2], 92 ± 36 nM; in assay [3], 20 nM; in assay [4], 2.51 nM. Also, the “NURR1–RXRα vs RXRα–RXRα selectivity” value in assay [4] was determined as 8 fold.

By EC50 is commonly meant the concentration needed to bring the measured effect to its halfway point. As usually defined, the IC50 is the concentration at which inhibition is half-maximal.
